Data on one compound can be found in patent publication US20220098197A1, “SALTS OF HETEROCYCLIC COMPOUND AND USE THEREOF” (priority 2019, published 2022).

For assay [1], the system named is LPS-induced ALI mice. Put plainly: LPS-induced ALI model: lung weight coefficient. It counts as in vivo, Balb/c mice. Particulars: CT-NA 10 or 30 mg/kg (P<0.01, dose-dependent), Dex 1 mg/kg; 24 hrs after LPS. The method, then: Specific pathogen-free (SPF) Balb/c mice (♂/♀; 20-26 g; 8 weeks old) were purchased from Shanghai SIPPR-BK Experimental Animal Co., Ltd. Mice were kept in an isolated ventilated cage in an environment of 40-60% humidity, 24±2° C., and 12 hrs/12 hrs dark-light cycle, and had free access to food and water. The method for preparing the LPS-induced ALI model was simply described as follows. The mice were randomly divided into a control group (12 mice) and an LPS group (48 mice). The LPS group (48 mice) was further divided into four subgroups (12 mice in each subgroup). […] 24 hrs after LPS challenge, the oxygen saturation (SO2) of all mice was measured by a Moor VMS-OXY™ instrument which measured SO2 (%) in the microcirculation at the wavelength range of 500 to 650 nm. […]
The mice were euthanized to expose the trachea, and then the right lungs were lavaged three times with 0.4 mL/time of sterile normal saline containing bovine serum albumin (BSA) and 5000 IU/L heparin to collect the BALF via tracheal tube. […] The removed lung tissues were weighted after aspirating the surface blood, and the lung weight coefficient was calculated. The lung weight coefficient was an indicator of pulmonary edema, and it was measured by dividing the individual lung weight of each mouse by its total body weight.

The next assay relates to RAW 264.7 macrophages. The assay can be described thus: In vitro cytokines assay via ELISA, CSE- and PGD2-stimulated macrophages. It counts as cell-based, mouse. Particulars: CT-NA 10 and 100 μM, p<0.01. The protocol:
The cigarette smoke generated from 3R4F research grade cigarettes was passed through 50 ml PBS by a vacuum pump. Five cigarettes were used to make smoke that passed 50 ml PBS, and each cigarette was lit for 5 minutes. The control solution was prepared in the absence of cigarettes by using a similar method. After extraction, CSE was stored at −80° C.
RAW 264.7 macrophages were added to two 12-well plates. Thereafter, the medium of the 12-well plate was replaced with serum-free RPMI-1640 medium, and the macrophages were incubated for 10-12 hrs and then exposed to CT-NA (10 and 100 μM) for 1 hour. One hour later, one 12-well plate was treated with CSE (4%) and the other with PGD2 (10 μM) for 24 hrs. After the treatment, the supernatant of the treated cells was collected to measure the protein levels of TNF-α, IL-1β, IL-6, KC and IL-10 extracellularly secreted using ELISA kits according to the method of the instructions. Subsequently, RNA samples from each treated plate were extracted and reverse-transcripted into cDNA with HiScript5xQRTSuperMix, and then subjected to RT-PCR. RT-PCR was performed with the BioRad CFX96 Touch™ Real-Time PCR Detection System (BioRad, USA) using AceQ® qPCR SYBR Green Master Mix. And the threshold cycle numbers were obtained using BioRad CFX Manager Software. The primers used for RT-PCR reaction were shown in Table 1. β-actin was used as an internal control. The RT-PCR reactions were triplicated and the relative expression of target mRNA was normalized by the respective β-actin.

Assay [2] deals with LPS-induced ALI mice. Put plainly: LPS-induced ALI model: albumin in BALF. The class given is in vivo, Balb/c mice. The settings on record: CT-NA 10 mg/kg (P<0.05) and 30 mg/kg (P<0.01), Dex 1 mg/kg (P<0.01); 24 hrs after LPS. The method, then: Evans Blue was a dye that could quickly bind to albumin and was remains restricted within blood vessels because the endothelium was impermeable to albumin under normal physiological conditions. Pulmonary microvascular permeability was assessed by measuring the extravasation of Evans blue dye in the lungs. The method was briefly described as follows. The mice were randomly divided into control group (12 mice) and LPS group (48 mice). The LPS group (48 mice) was further divided into four subgroups (each subgroup contains 12 mice). To measure pulmonary microvascular permeability, the unanaesthetized mice of LPS group received intragastric instillation of NS, CT-NA at 10 mg/kg or 30 mg/kg, or Dex at 1 mg/kg respectively. One hour later, the anaesthetized mice were intratracheally instilled with NS (control group) and LPS (all LPS subgroups) at 10 μl/10 g of body weight. […] And then the absorbance of the Evans blue dye extracted in the supernatant was measured against formamide blank at 620 nm via standard curve method, and expressed as microgram of dye per 100 mg of wet lung weight. In addition, the concentration of albumin in BALF was measured at 628 nm using a spectrophotometer and an albumin measurement kit. The albumin concentration ratio assessed from BALF represented not only the albumin level but also the permeability of the pulmonary microvascular.

Regarding `CN([C@@H]1CCc2c(CC(=O)[O-])c3cccnc3n2C1)S(=O)(=O)c1ccc(F)cc1.[Na+]` [Sodium salt hydrate], in the assay on LPS-induced ALI mice [1], the “lung wet weight coefficient” value is “notably reduced”. In the assay on RAW 264.7 macrophages (1 h pretreatment, CSE (4%) 24 hrs), the “protein levels of IL-1β, IL-6, TNF-α and KC, CSE-stimulated” value is “inhibited”. Besides, the “protein levels of IL-1β, IL-6, TNF-α and KC, PGD2-stimulated” value in the assay with RAW 264.7 macrophages (1 h pretreatment, PGD2 (10 μM) 24 hrs) is “inhibited”. For the same compound, in the assay on RAW 264.7 macrophages (CSE (4%), dose-dependent), the “CSE-induced inhibition of IL-10, protein” value is listed as “reversed”. In the assay with RAW 264.7 macrophages (PGD2 (10 μM), dose-dependent), the “PGD2-induced inhibition of IL-10, protein” value is “reversed”. In addition, the “albumin content in BALF” value in the assay with LPS-induced ALI mice [2] is on record as “considerably reduced”.
